Where only a bound is given, the exact number is not on record here.

Experimental findings from US20240368106A1, “HYDROXY AND ALKOXY COUMARINS AS MODULATORS OF POLRMT” (Pretzel Therapeutics, Inc., priority 2021, published 2024) are described below.

Sequence of POLRMT (O00411 42-1230): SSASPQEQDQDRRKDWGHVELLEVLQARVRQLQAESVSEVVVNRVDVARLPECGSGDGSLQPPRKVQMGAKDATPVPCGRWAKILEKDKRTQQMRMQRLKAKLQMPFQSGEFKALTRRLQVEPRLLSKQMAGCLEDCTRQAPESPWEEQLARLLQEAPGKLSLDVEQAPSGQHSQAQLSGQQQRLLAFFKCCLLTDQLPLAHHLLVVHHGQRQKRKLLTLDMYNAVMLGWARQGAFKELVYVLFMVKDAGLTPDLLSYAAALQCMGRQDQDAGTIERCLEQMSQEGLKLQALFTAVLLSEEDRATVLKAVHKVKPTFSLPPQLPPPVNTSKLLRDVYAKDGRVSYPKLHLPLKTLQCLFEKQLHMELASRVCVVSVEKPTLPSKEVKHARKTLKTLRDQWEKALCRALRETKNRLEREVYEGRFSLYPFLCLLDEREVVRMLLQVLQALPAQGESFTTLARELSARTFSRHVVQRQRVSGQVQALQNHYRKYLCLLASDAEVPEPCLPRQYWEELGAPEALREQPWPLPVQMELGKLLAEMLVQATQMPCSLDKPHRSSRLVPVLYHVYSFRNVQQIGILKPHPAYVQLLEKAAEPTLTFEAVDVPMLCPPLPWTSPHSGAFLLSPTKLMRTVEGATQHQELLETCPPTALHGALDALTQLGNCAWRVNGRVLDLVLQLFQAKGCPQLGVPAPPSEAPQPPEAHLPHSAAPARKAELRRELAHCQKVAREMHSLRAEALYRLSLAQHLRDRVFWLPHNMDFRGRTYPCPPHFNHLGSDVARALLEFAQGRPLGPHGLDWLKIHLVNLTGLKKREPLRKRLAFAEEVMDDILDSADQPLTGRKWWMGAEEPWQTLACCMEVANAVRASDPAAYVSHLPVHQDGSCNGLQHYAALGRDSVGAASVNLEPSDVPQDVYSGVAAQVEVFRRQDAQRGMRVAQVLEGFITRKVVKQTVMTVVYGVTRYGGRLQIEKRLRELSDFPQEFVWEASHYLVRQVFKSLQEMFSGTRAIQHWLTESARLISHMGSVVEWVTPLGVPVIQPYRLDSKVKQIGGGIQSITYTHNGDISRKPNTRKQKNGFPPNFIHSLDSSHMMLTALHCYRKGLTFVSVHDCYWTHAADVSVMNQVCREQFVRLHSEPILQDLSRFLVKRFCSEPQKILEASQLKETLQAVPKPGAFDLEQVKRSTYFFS

The assay has as its target POLRMT (Homo sapiens (Human), UniProt O00411). Description: homogeneous TR-FRET assay of mitochondrial transcription (inhibition of POLRMT). The format is biochemical. The conditions noted are these: 7.5 nM POLRMT, 15 nM TFB2M, 30 nM TFAM, 0.5 nM DNA template, 500 μM NTPs, 37° C., 60 minutes. The protocol:
The inhibitory activity of the compounds of the present invention against POLRMT were determined by assays based on Bergbrede, T., et al., “An adaptable high-throughput technology enabling the identification of specific transcription modulators,” SLAC Discov., 22, 378-386 (2017).
The ability of some compounds of the present invention to inhibit POLRMT were determined in a homogeneous TR-FRET Assay using high-throughput screening in a 384-well plate format. This method is used to monitor the activity of mitochondrial transcription through measurement of its product, a 407 bp long RNA transcript. Detection of the product is facilitated by hybridization of two DNA-oligonucleotide probes to specific and adjacent sequences within the RNA product sequence. Upon annealing of the probes, two fluorophores are coupled directly to an acceptor nucleotide probe (ATT0647, 5′), or introduced via a coupled streptavidin with a biotinylated donor nucleotide probe (Europium cryptate) that is brought into sufficient proximity to serve as a fluorescence-donor-acceptor pair. Thus, a FRET signal at 665 nm is generated upon excitation at 340 nm.
Proteins used as transcription factors (POLRMT: NP_005026.3, TFAM: NP_003192.1, TFB2M: NP_071761.1) are diluted from their stocks to working concentrations of 1 μM, 20 μM and 4 μM respectively, in a dilution buffer containing 20 mM Tris-HCl (pH 8.0), 200 mM NaCl, 10% (v/v) glycerol, 1 mM Dithiothreitol (DTT), 0.5 mM EDTA.
DNA template is a pUC18 plasmid with the mitochondrial light strand promotor sequence (1-477) cloned between HindIII and BamHI sites. The DNA template is restriction linearized proximal to the promotor 3′-end (pUC-LSP). The reaction mixture (10 uL) containing 7.5 nM POLRMT, 15 nM of TFB2M, 30 nM of TFAM, 0.5 nM of DNA template and 500 μM nucleotide triphosphate mix (NTPs) in a reaction buffer (containing 10 mM Tris-HCl (pH 7.5), 10 mM MgCl2, 40 mM NaCl, 10 mM DTT, 0.005% (w/v) Tween-20, 160 units/ml Rnase inhibitor and 0.1 mg/mL BSA) are dispensed to compounds in microplates, using a Thermo Multidrop® dispenser, and incubated at 37° C. in a VWR INCU-Line incubator for 60 minutes after mixing. No nucleotide triphosphate mix is added to negative control samples. Microplates with compounds to be tested in the assay are prepared from 10 mM compound stocks in 100% DMSO, equal amounts of DMSO without any compound are added to positive control and negative control samples.
During the incubation, a mix of the detection reagents is prepared in a buffer such that the enzymatic reaction is terminated due to chelating of Mg-ions and increased ionic strength, containing 50 mM Tris-HCl (pH 7.5), 700 mM NaCl, 20 mM EDTA, and 0.010% (w/v) Tween-20. Europium-streptavidin is pre-incubated with a 200-fold molar excess of a random sequence oligonucleotide to block unspecific binding of oligo, for two hours at ambient temperature in the dark. Afterwards, the blocked Europium-streptavidin is kept on ice until use.
At the end of the enzymatic reaction time, 5 μL detection oligo mix in the detection buffer is added, and assay plates are mixed and kept at ambient temperature for one hour, protected from light. The concentration of the Acceptor nucleotide oligo (e.g., ATTO647N-5′-[…]-3′) and Donor nucleotide oligo (e.g., bio-5′-AACACATCTCT(-bio)GCCAAACCCCA-bio-3′) in each assay well is 1 nM, and 3 nM, respectively.
After incubation with oligo mix, 5 μL of pre-blocked Europium-streptavidin reagent is dispensed to each assay well, assay plates are again mixed and kept at ambient temperature for one hour, protected from light.
The generated signal is measured with BMG Pherastar microtiter plate reader with a TRF light unit, using excitation at 340 nm, an integration time of 200 μs, and a delay time of 100 μs, before detection at 620 nm and 665 nm. The ratio of donor- and acceptor-fluorescence is used as a measure of the generated transcript product (i.e. enzymatic activity).
(In general: TR-FRET usually uses a lanthanide donor and a delayed reading to cut background.)
For the compound `Cc1cc(O[C@H](C)C(=O)N(C)C)cc2oc(=O)cc(-c3ccc(F)cc3)c12` [Example 20, (R)-2-((4-(4-fluorophenyl)-5-methyl-2-oxo-2H-chromen-7-yl)oxy)-N,N-dimethylpropanamide], the IC50 was found to be 2 µM.
The value for `COC[C@H](Oc1ccc2c(-c3ccccc3C)cc(=O)oc2c1)C(=O)N(C)C` [Example 72, (S)-3-methoxy-N,N-dimethyl-2-((2-oxo-4-(o-tolyl)-2H-chromen-7-yl)oxy)propenamide] was 10 µM; that for `Cc1ccccc1-c1cc(=O)oc2cc(OCCc3ccccc3)ccc12` [Example 07, 7-phenethoxy-4-(o-tolyl)-2H-chromen-2-one] was 4 µM.
As for `CCOCC(Oc1ccc2c(-c3ccccc3C)cc(=O)oc2c1)C(N)=O` (stereo not shown) [Example 99], inhibition was half-maximal at 4 µM (IC50).
As for `Cc1ccccc1-c1cc(=O)oc2cc(OC3CCCOC3)ccc12` (single isomer, unassigned) [Example 48, 7-((tetrahydro-2H-pyran-3-yl)oxy)-4-(o-tolyl)-2H-chromen-2-one], the IC50 was found to be 3 µM.
The value for `Cc1ccccc1-c1cc(=O)oc2cc(OC3CCCOC3)ccc12` (single isomer, unassigned) [Example 49, 7-((tetrahydro-2H-pyran-3-yl)oxy)-4-(o-tolyl)-2H-chromen-2-one] was 1 µM; that for `COCC(Oc1ccc2c(-c3ccccc3C)cc(=O)oc2c1)C(=O)N1CCC1` (single isomer, unassigned) [Example 90, 7-((1-(azetidin-1-yl)-3-methoxy-1-oxopropan-2-yl)oxy)-4-(o-tolyl)-2H-chromen-2-one] was 10 µM.
To “2-((4-(2-chloro-4-fluorophenyl)-2-oxo-2H-chromen-7-yl)oxy)-3-methoxypropanamide [Example 76]” belongs 44 µM.
The value for `Cc1ccccc1-c1cc(=O)oc2cc(OCC3CCCCO3)ccc12` (single isomer, unassigned) [Example 39, 7-((tetrahydro-2H-pyran-2-yl)methoxy)-4-(o-tolyl)-2H-chromen-2-one] was 0.9 µM.
In the case of `CNC(=O)[C@H](COC)Oc1ccc2c(-c3ccccc3C)cc(=O)oc2c1` [Example 69, (S)-3-methoxy-N-methyl-2-((2-oxo-4-(o-tolyl)-2H-chromen-7-yl)oxy)propenamide], the IC50 worked out at 17 µM.
On to `CNC(=O)CCOc1ccc2c(-c3ccccc3C)cc(=O)oc2c1` [Example 12, N-methyl-3-((2-oxo-4-(o-tolyl)-2H-chromen-7-yl)oxy)propanamide], for which the IC50 was determined as 7 µM.
The value for `CCCOc1ccc2c(-c3cnccc3C(F)(F)F)cc(=O)oc2c1` [Example 32, 7-propoxy-4-(4-(trifluoromethyl)pyridin-3-yl)-2H-chromen-2-one] was 23 µM; that for `CCCOc1ccc2c(-c3ccccc3OC)cc(=O)oc2c1` [Example 35, 4-(2-methoxyphenyl)-7-propoxy-2H-chromen-2-one] was 6 µM.
Consider `COCC(Oc1ccc2c(-c3ccc(F)cc3Cl)cc(=O)oc2c1)C(=O)OC` (stereo not shown) [Example 14, methyl 2-((4-(2-chloro-4-fluorophenyl)-2-oxo-2H-chromen-7-yl)oxy)-3-methoxypropanoate], for which inhibition was half-maximal at 0.2 µM (IC50).
The value for `Cc1ccccc1-c1cc(=O)oc2cc(OCC3CCOCC3)ccc12` [Example 29, 7-((tetrahydro-2H-pyran-4-yl)methoxy)-4-(o-tolyl)-2H-chromen-2-one] was 1 µM; that for `COCC(Oc1ccc2c(-c3ccccc3Cl)cc(=O)oc2c1)C(=O)O` (stereo not shown) [Example 84, 2-((4-(2-chlorophenyl)-2-oxo-2H-chromen-7-yl)oxy)-3-methoxypropanoic acid] was 2 µM.
Compound `COCC(Oc1ccc2c(-c3ccccc3Cl)cc(=O)oc2c1)C(=O)N(C)C` (single isomer, unassigned) [Example 93, 2-((4-(2-chlorophenyl)-2-oxo-2H-chromen-7-yl)oxy)-3-methoxy-N,N-dimethylpropanamide] displayed an IC50 of 18 µM.
The value for `COCC(C)Oc1cc(C)c2c(-c3ccccc3C)cc(=O)oc2c1` (single isomer, unassigned) [Example 60, 7-((1-methoxypropan-2-yl)oxy)-5-methyl-4-(o-tolyl)-2H-chromen-2-one] was 0.5 µM; that for `COCC(Oc1ccc2c(-c3ccc(F)cc3Cl)cc(=O)oc2c1)C(=O)N(C)C` (single isomer, unassigned) [Example 86, 2-((4-(2-chloro-4-fluorophenyl)-2-oxo-2H-chromen-7-yl)oxy)-3-methoxy-N,N-dimethylpropanamide] was over 100 µM; that for `Cc1cccc(C)c1-c1cc(=O)oc2cc(OCC#N)ccc12` [Example 107, 2-((4-(2,6-dimethylphenyl)-2-oxo-2H-chromen-7-yl)oxy)acetonitrile] was 0.03 µM.
`Cc1cc(OCC(C)C)cc2oc(=O)cc(-c3ccccc3)c12` [Example 24, 7-isobutoxy-5-methyl-4-phenyl-2H-chromen-2-one] had an IC50 of 93 µM.
Consider `COCC(Oc1ccc2c(-c3ccccc3C)cc(=O)oc2c1)C(=O)NCC(F)(F)F` (single isomer, unassigned) [Example 83, 3-methoxy-2-((2-oxo-4-(o-tolyl)-2H-chromen-7-yl)oxy)-N-(2,2,2-trifluoroethyl)propanamide], for which the midpoint of inhibition, the IC50, lay at 0.2 µM.
For the compound `COCCNC(=O)C(COC)Oc1ccc2c(-c3ccccc3C)cc(=O)oc2c1` (single isomer, unassigned) [Example 88, 3-methoxy-N-(2-methoxyethyl)-2-((2-oxo-4-(o-tolyl)-2H-chromen-7-yl)oxy)propanamide], half-maximal inhibition (IC50) was put at 0.5 µM. Against the preceding compound, the IC50 is about 2.5-fold higher.
Regarding `CCCOc1ccc2c(-c3c(C)noc3C)cc(=O)oc2c1` [Example 52, 4-(3,5-dimethylisoxazol-4-yl)-7-propoxy-2H-chromen-2-one], inhibition was half-maximal at 17 µM (IC50).
Take `CNC(=O)C(COC)Oc1ccc2c(-c3ccccc3Cl)cc(=O)oc2c1` (single isomer, unassigned) [Example 91, 2-((4-(2-chlorophenyl)-2-oxo-2H-chromen-7-yl)oxy)-3-methoxy-N-methylpropanamide]: the IC50 was found to be 14 µM.
In turn, `CCCOc1ccc2c(-c3ccc(O)cc3C)cc(=O)oc2c1` [Example 34, 4-(4-hydroxy-2-methylphenyl)-7-propoxy-2H-chromen-2-one] showed an IC50 of 4 µM.
Compound `Cc1ccccc1-c1cc(=O)oc2cc(OCC(N)=O)ccc12` [Example 108, 2-((2-oxo-4-(o-tolyl)-2H-chromen-7-yl)oxy)acetamide] came in with an IC50 of 0.2 µM.
The value for `CNC(=O)[C@@H](COC)Oc1ccc2c(-c3ccccc3C)cc(=O)oc2c1` [Example 70, (R)-3-methoxy-N-methyl-2-((2-oxo-4-(o-tolyl)-2H-chromen-7-yl)oxy)propenamide] was 0.9 µM.
To `Cc1ccccc1-c1cc(=O)oc2cc(O[C@H]3CCN(C)C3)ccc12` [Example 63, (S)-7-((1-methylpyrrolidin-3-yl)oxy)-4-(o-tolyl)-2H-chromen-2-one] belongs 90 µM; to `CCCOc1ccc2c(-c3cnc(Cl)cc3C)cc(=O)oc2c1` [Example 55, 4-(6-chloro-4-methylpyridin-3-yl)-7-propoxy-2H-chromen-2-one], 5 µM; to `CNC(=O)C(CO)Oc1ccc2c(-c3ccccc3C)cc(=O)oc2c1` (single isomer, unassigned) [Example 98, 3-hydroxy-N-methyl-2-[4-(o-tolyl)-2-oxo-chromen-7-yl]oxy-propanamide], over 100 µM.

One may read the IC50 as the concentration that inhibits the measured activity by half. Low readings indicate greater potency in that assay, high ones weaker potency in that assay.
